In ChEMBL document CHEMBL6182855, “Design and synthesis of phenanthridinone and phenanthridine derivatives and their radiosensitizing activity” (2025):
Values belong to the compound of their own block, whether it stands above or below them. Activity calls are given as the source filed them. The calls are words filed in the database; no cut-off is given here.

Key:
[1] = target: Tyrosyl-DNA phosphodiesterase 1 (Homo sapiens) (UniProt Q9NUW8); assay: Inhibition of TDP1 (unknown origin) using (5'-FAM-AGGATCTAAAAGACTT-BHQ-3') as substrate at 100 uM by fluorescence assay
[2] = test system: HCT-116; assay: Cytotoxicity against human HCT-116 cells assessed as cell killing at 0.5 uM incubated for 72 hrs by CCK-8 assay relative to control; type: functional
[3] = test system: HCT-116; assay: Cytotoxicity against human HCT-116 cells assessed as cell growth inhibition incubated for 72 hrs by CCK-8 assay; type: functional
[4] = test system: HCT-116; assay: Cytotoxicity against human HCT-116 cells assessed as cell survival at 0.5 uM incubated for 72 hrs by CCK-8 assay relative to control; type: functional; conditions: read-out: Activity
[5] = test system: HCT-116; assay: Radiosensitizing activity in human HCT-116 cells assessed as reduction in cell viability at 0.5 uM co-treated with IR-2 Gy incubated for 72 hrs by CCK-8 assay (reference value: 37%); type: functional
[6] = test system: HCT-116; assay: Radiosensitizing activity in human HCT-116 cells assessed as cell killing at 0.5 uM co-treated with IR-2 Gy incubated for 72 hrs by CCK-8 assay (reference value: 37%); type: functional
[7] = test system: HCT-116; assay: Cytotoxicity against human HCT-116 cells at 0.5 uM incubated for 72 hrs by CCK-8 assay; type: functional, cell-based
[8] = test system: HCT-116; assay: Induction of ROS generation in human HCT-116 cells assessed as fold increase in ROS level at 10 uM in presence of IR 4 Gy by DCFH-DA staining based ELISA; type: functional
[9] = test system: HCT-116; assay: Induction of apoptosis in human HCT-116 cells assessed as late apoptotic cells at 5 uM incubated for 24 hrs in presence of IR-4 Gy by AnnexinV-FITC/PI staining based flow cytometry (reference value: 0.93%); type: functional
[10] = test system: HCT-116; assay: Induction of cell cycle arrest in human HCT-116 cells assessed as accumulation of cells at G0/G1 phase at 5 uM incubated for 24 hrs in presence of IR-4 Gy by PI staining based flow cytometric analysis (reference value: 56.89%); type: functional
[11] = test system: HCT-116; assay: Induction of cell cycle arrest in human HCT-116 cells assessed as accumulation of cells at G2/M phase at 5 uM incubated for 24 hrs in presence of IR-4 Gy by PI staining based flow cytometric analysis (reference value: 29.00 %); type: functional
[12] = test system: HCT-116; assay: Radiosensitization activity in human HCT-116 cells assessed as combination index at 0.1 to 0.5 uM incubated for 24 hrs in presence of IR-2 Gy by crystal violet staining based colony formation assay; type: functional; conditions: dose 0.1-0.5 µM
[13] = test system: HCT-116; assay: Induction of ROS generation in human HCT-116 cells at 5 to 10 uM by DCFH-DA staining based ELISA; type: functional, cell-based; conditions: dose 5-10 µM
[14] = test system: HCT-116; assay: Induction of apoptosis in human HCT-116 cells assessed as viable cells at 5 uM incubated for 24 hrs in presence of IR-4 Gy by AnnexinV-FITC/PI staining based flow cytometry (reference value: 94.08%); type: functional; conditions: read-out: Activity
[15] = test system: HCT-116; assay: Induction of cell cycle arrest in human HCT-116 cells assessed as accumulation of cells at G0/G1 phase at 5 uM incubated for 24 hrs by PI staining based flow cytometric analysis (reference value: 58.75%); type: functional
[16] = test system: HCT-116; assay: Radiosensitization activity in human HCT-116 cells assessed as cell killing at 0.25 uM incubated for 24 hrs in presence of IR-5 Gy by crystal violet staining based colony formation assay relative to control; type: functional
[17] = test system: HCT-116; assay: Induction of apoptosis in human HCT-116 cells assessed as viable cells at 5 uM incubated for 24 hrs by AnnexinV-FITC/PI staining based flow cytometry (reference value: 98.05%); type: functional; conditions: read-out: Activity
[18] = test system: HCT-116; assay: Radiosensitization activity in human HCT-116 cells incubated for 24 hrs in presence of IR-2 Gy by crystal violet staining based colony formation assay; type: functional, cell-based; conditions: dose 0.1-0.5 µM
[19] = test system: HCT-116; assay: Induction of apoptosis in human HCT-116 cells assessed as late apoptotic cells at 5 uM incubated for 24 hrs by AnnexinV-FITC/PI staining based flow cytometry (reference value: 0.41%); type: functional
[20] = test system: HCT-116; assay: Induction of apoptosis in human HCT-116 cells assessed as early apoptotic cells at 5 uM incubated for 24 hrs in presence of IR-4 Gy by AnnexinV-FITC/PI staining based flow cytometry (reference value: 4.88%); type: functional
[21] = test system: HCT-116; assay: Induction of DNA damage in human HCT-116 cells assessed as increase in gamma-H2AX fluorescence intensity at 10 uM incubated for 6 hrs in presence of IR 4 Gy by DAPI staining based immunofluorescence microscopic analysis; type: functional, cell-based
[22] = test system: HCT-116; assay: Induction of cell cycle arrest in human HCT-116 cells assessed as accumulation of cells at G2/M phase at 5 uM incubated for 24 hrs by PI staining based flow cytometric analysis (reference value: 23.42 %); type: functional
[23] = test system: HCT-116; assay: Induction of ROS generation in human HCT-116 cells at 5 to 10 uM in presence of IR 4 Gy by DCFH-DA staining based ELISA; type: functional, cell-based; conditions: dose 5-10 µM
[24] = test system: HCT-116; assay: Inhibition of colony formation in human HCT-116 cells at 0.25 uM incubated for 24 hrs by crystal violet staining based colony formation assay relative to control; type: functional
[25] = test system: HCT-116; assay: Radiosensitization activity in human HCT-116 cells assessed as combination index at 0.25 uM incubated for 24 hrs in presence of IR-5 Gy by crystal violet staining based colony formation assay; type: functional
[26] = test system: HCT-116; assay: Induction of cell cycle arrest in human HCT-116 cells assessed as accumulation of cells at S phase at 5 uM incubated for 24 hrs in presence of IR-4 Gy by PI staining based flow cytometric analysis (reference value: 13.71%); type: functional
[27] = test system: HCT-116; assay: Induction of cell cycle arrest in human HCT-116 cells assessed as accumulation of cells at S phase at 5 uM incubated for 24 hrs by PI staining based flow cytometric analysis (reference value: 17.14%); type: functional
[28] = test system: HCT-116; assay: Induction of DNA damage in human HCT-116 cells assessed as increase in gamma-H2AX fluorescence intensity at 10 uM incubated for 6 hrs by DAPI staining based immunofluorescence microscopic analysis; type: functional, cell-based
[29] = test system: HCT-116; assay: Induction of apoptosis in human HCT-116 cells assessed as early apoptotic cells at 5 uM incubated for 24 hrs by AnnexinV-FITC/PI staining based flow cytometry (reference value: 1.41%); type: functional
[30] = test system: HCT-116; assay: Induction of ROS generation in human HCT-116 cells assessed as fold increase in ROS level at 5 uM in presence of IR 4 Gy by DCFH-DA staining based ELISA; type: functional

Chain of Tyrosyl-DNA phosphodiesterase 1 (Homo sapiens) (Q9NUW8 whole entry): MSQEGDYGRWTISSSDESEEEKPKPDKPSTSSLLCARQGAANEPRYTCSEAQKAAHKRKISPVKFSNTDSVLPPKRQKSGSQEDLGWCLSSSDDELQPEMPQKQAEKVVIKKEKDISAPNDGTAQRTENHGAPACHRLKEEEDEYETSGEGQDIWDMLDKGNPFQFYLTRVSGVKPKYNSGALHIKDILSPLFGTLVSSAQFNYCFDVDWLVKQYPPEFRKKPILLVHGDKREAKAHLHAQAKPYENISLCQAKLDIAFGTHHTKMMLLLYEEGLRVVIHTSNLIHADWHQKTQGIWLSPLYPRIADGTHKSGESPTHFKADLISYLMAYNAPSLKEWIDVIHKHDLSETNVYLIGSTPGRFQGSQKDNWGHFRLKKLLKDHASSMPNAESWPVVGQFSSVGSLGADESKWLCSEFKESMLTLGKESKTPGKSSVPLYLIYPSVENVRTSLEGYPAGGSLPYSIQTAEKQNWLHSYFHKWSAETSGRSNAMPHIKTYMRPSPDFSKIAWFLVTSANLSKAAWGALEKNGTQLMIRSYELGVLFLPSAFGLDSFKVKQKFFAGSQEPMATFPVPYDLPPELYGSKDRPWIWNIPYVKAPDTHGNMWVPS

- inhibition [1]: inactive
SMILES: COc1cc2c(NCCN3CCCC3)nc3c4c(ccc3c2cc1OC)OCO4
- viability at 0.5 µM [4]: ~80%
- Activity [5]: Active
- GI50 [3]: 2.11 µM

- inhibition [1]: inactive
SMILES: COc1cc2c(OCCN(C)C)nc3c4c(ccc3c2cc1OC)OCO4
- Activity [2]: ~100%
- GI50 [3]: 0.32 µM

- inhibition [1]: inactive
SMILES: COc1cc2c(Nc3ccc(C(=O)N4CCC(OC)CC4)cc3)nc3c4c(ccc3c2cc1OC)OCO4
- GI50 [3]: 2.76 µM

- inhibition [1]: inactive
SMILES: COc1ccc(Cn2c(=O)c3cc(OC)c(OC)cc3c3ccc4c(c32)OCO4)cc1
- GI50 [3]: > 100 µM

- inhibition [1]: inactive
SMILES: COc1cc2c(Nc3ccc(C(=O)N(C)C)cc3)nc3c4c(ccc3c2cc1OC)OCO4
- GI50 [3]: 7.79 µM

- inhibition [1]: inactive
SMILES: COc1cc2c(=O)n(Cc3ccc(C(=O)O)cc3)c3c4c(ccc3c2cc1OC)OCO4
- GI50 [3]: > 100 µM

- inhibition [1]: inactive
SMILES: COc1cc2c(Nc3ccc(C(=O)N4CCN(C)CC4)cc3)nc3c4c(ccc3c2cc1OC)OCO4
- GI50 [3]: 3.32 µM

- inhibition [1]: inactive
SMILES: COc1cc2c(Nc3ccc(C(=O)N4CCOCC4)cc3)nc3c4c(ccc3c2cc1OC)OCO4
- GI50 [3]: 5.26 µM

- inhibition [1]: inactive
SMILES: COc1cc2c(Nc3ccc(C(=O)N4CCCC4)cc3)nc3c4c(ccc3c2cc1OC)OCO4
- GI50 [3]: 1.46 µM

- inhibition [1]: inactive
SMILES: COc1cc2c(NCCN(C)C)nc3c4c(ccc3c2cc1OC)OCO4
- Activity [2]: ~100%
- GI50 [3]: 0.47 µM

Second part, the compound before the results:

SMILES: COc1cc2c(=O)n(CCN3CCCC3)c3c4c(ccc3c2cc1OC)OCO4
- inhibition [1]: inactive
- Activity [2]: ~100%
- GI50 [3]: 0.56 µM

SMILES: COc1cc2c(=O)n(CC(=O)N3CCOCC3)c3c4c(ccc3c2cc1OC)OCO4
- inhibition [1]: inactive
- GI50 [3]: 54.2 µM

SMILES: COc1cc2c(=O)n(CCN(C)C)c3c4c(ccc3c2cc1OC)OCO4
- inhibition [1]: inactive
- Activity [2]: ~100%
- GI50 [3]: 0.55 µM

SMILES: COc1cc2c(=O)n(CCN3CCN(C)CC3)c3c4c(ccc3c2cc1OC)OCO4
- inhibition [1]: inactive
- GI50 [3]: 9.95 µM

SMILES: COc1cc2c(NCCN3CCN(C)CC3)nc3c4c(ccc3c2cc1OC)OCO4
- inhibition [1]: inactive
- GI50 [3]: 0.85 µM

SMILES: COc1cc2c(=O)n(CCc3cccs3)c3c4c(ccc3c2cc1OC)OCO4
- inhibition [1]: inactive
- GI50 [3]: 44.8 µM

SMILES: COc1cc2c(OCCN3CCN(C)CC3)nc3c4c(ccc3c2cc1OC)OCO4
- inhibition [1]: inactive
- GI50 [3]: 7.88 µM

SMILES: COc1cc2c(=O)n(CCn3cccn3)c3c4c(ccc3c2cc1OC)OCO4
- inhibition [1]: inactive
- GI50 [3]: > 100 µM

SMILES: COc1cc2c(=O)n(CCNC(=O)OC(C)(C)C)c3c4c(ccc3c2cc1OC)OCO4
- inhibition [1]: inactive
- GI50 [3]: > 100 µM

SMILES: COc1cc2c(=O)n(CCN3CCCCC3)c3c4c(ccc3c2cc1OC)OCO4
- inhibition [1]: inactive
- GI50 [3]: 0.81 µM
- Activity [6]: 55%
- Activity [7]: inactive

SMILES: COc1cc2c(=O)n(Cc3ccc(OC(F)(F)F)cc3)c3c4c(ccc3c2cc1OC)OCO4
- inhibition [1]: inactive
- GI50 [3]: 4.79 µM

SMILES: COc1cc2c(N3CCN(c4ncccn4)CC3)nc3c4c(ccc3c2cc1OC)OCO4
- fold change (FC) [8]: 1.8
- Activity [9]: 3.11%
- inhibition [1]: inactive
- Activity [10]: 23.41%
- viability at 0.5 µM [4]: 64%
- Activity [11]: 43.16%
- CI [12]: 0.4
- Activity [13]: inactive
- Activity [5]: <20%
- viability at 5 µM [14]: 89.4%
- GI50 [3]: 6.08 µM
- Activity [15]: 36.95%
- Activity [16]: ~99%
- viability at 5 µM [17]: 95.2%
- Activity [18]: Dose-dependent-effect
- Activity [19]: 2.1%
- Activity [20]: 7.21%
- Activity [21]: Active
- Activity [22]: 37.67%
- Activity [23]: Active
- inhibition at 0.25 µM [24]: 30%
- CI [25]: 0.29
- Activity [26]: 22.09%
- Activity [27]: 23.9%
- Activity [28]: Active
- Activity [29]: 1.75%
- fold change (FC) [30]: 1.4

SMILES: COc1cc2c(=O)n(CCN3CCOCC3)c3c4c(ccc3c2cc1OC)OCO4
- inhibition [1]: inactive
- GI50 [3]: 3.22 µM

SMILES: COc1cc2c(OCCN3CCCC3)nc3c4c(ccc3c2cc1OC)OCO4
- inhibition [1]: inactive
- Activity [2]: ~100%
- GI50 [3]: 0.31 µM

SMILES: COc1cc2c(=O)n(CCn3cccc3)c3c4c(ccc3c2cc1OC)OCO4
- inhibition [1]: inactive
- GI50 [3]: 17.3 µM
